Reference: ChEMBL document CHEMBL3797052 (Eur J Med Chem, 2016)

System: not listed separately
Test: Antiproliferative activity against human LOXIMVI cells assessed as cell growth at 10^-4 M after 48 hrs by sulforhodamine B assay
Type: functional
Settings: LOX IMVI, read-out: Activity

Question: Which growth at 100 µM does the source give for `CNC(=O)c1cc(Oc2ccc3nc(NC(=O)Nc4cc(C(F)(F)F)cc(C(F)(F)F)c4)sc3c2)ccn1` here?
Answer: -62%

System: SK-MEL-2
Test: Antiproliferative activity against human SK-MEL-2 cells assessed as growth inhibition after 48 hrs by sulforhodamine B assay
Type: functional
Settings: SK-MEL-2, 48 h

Question: With `CNC(=O)c1cc(Oc2ccc3nc(NC(=O)Nc4cc(C(F)(F)F)cc(C(F)(F)F)c4)sc3c2)ccn1` as the molecule, how does the GI50 read?
Answer: 1.05 µM

Question: And the TGI?
Answer: 3.13 µM

Same assay, conditions: SK-MEL-2, 48 h, read-out: LC50 (the source's name)

Question: For `CNC(=O)c1cc(Oc2ccc3nc(NC(=O)Nc4cc(C(F)(F)F)cc(C(F)(F)F)c4)sc3c2)ccn1`, which CC50 is on record?
Answer: 9.31 µM

System: not listed separately
Test: Antiproliferative activity against human Hs 578T cells assessed as cell growth at 10^-4 M after 48 hrs by sulforhodamine B assay
Type: functional
Settings: read-out: Activity

Question: With `CNC(=O)c1cc(Oc2ccc3nc(NC(=O)Nc4cc(C(F)(F)F)cc(C(F)(F)F)c4)sc3c2)ccn1` as the molecule, how does the growth at 100 µM read?
Answer: -38%

System: not listed separately
Test: Antiproliferative activity against human HOP92 cells assessed as cell growth at 10^-8 M after 48 hrs by sulforhodamine B assay
Type: functional
Settings: HOP-92, 48 h, read-out: Activity

Question: With `CNC(=O)c1cc(Oc2ccc3nc(NC(=O)Nc4cc(C(F)(F)F)cc(C(F)(F)F)c4)sc3c2)ccn1` as the molecule, how does the growth at 0.01 µM read?
Answer: 102%

System: Serine/threonine-protein kinase B-raf (Homo sapiens), P15056 [V600E]
Test: Inhibition of BRAF V600E mutant (unknown origin) at 10 uM measured after 40 mins by scintillation counting
Settings: not given

Sequence of Serine/threonine-protein kinase B-raf (Homo sapiens), P15056 [V600E] (P15056 whole entry V600E): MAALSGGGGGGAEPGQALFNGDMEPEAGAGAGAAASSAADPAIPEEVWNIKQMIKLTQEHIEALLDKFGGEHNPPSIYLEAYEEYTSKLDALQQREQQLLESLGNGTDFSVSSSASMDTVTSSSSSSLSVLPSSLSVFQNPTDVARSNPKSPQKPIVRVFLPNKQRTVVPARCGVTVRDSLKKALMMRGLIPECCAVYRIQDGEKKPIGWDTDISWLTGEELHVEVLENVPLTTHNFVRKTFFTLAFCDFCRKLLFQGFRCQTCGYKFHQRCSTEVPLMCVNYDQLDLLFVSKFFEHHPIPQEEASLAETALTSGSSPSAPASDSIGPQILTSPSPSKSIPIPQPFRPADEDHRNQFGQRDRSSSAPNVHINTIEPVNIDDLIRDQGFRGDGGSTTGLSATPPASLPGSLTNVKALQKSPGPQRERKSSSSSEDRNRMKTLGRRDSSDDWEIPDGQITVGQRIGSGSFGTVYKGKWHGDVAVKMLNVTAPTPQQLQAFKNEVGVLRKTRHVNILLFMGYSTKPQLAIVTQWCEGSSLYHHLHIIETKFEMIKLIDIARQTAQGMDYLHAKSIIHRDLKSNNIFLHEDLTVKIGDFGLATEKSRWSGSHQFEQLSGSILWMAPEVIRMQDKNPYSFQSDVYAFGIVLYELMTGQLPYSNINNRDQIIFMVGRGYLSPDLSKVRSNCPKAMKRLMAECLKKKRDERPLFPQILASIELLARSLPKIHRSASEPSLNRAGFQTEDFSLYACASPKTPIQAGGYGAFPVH

Question: For `CNC(=O)c1cc(Oc2ccc3nc(NC(=O)Nc4cc(C(F)(F)F)cc(C(F)(F)F)c4)sc3c2)ccn1`, which inhibition is on record?
Answer: 49.9%

System: not listed separately
Test: Antiproliferative activity against human OVCAR5 cells assessed as cell growth at 10^-8 M after 48 hrs by sulforhodamine B assay
Type: functional
Settings: OVCAR-5, 48 h, read-out: Activity

Question: For `CNC(=O)c1cc(Oc2ccc3nc(NC(=O)Nc4cc(C(F)(F)F)cc(C(F)(F)F)c4)sc3c2)ccn1`, which growth at 0.01 µM is on record?
Answer: 94%

System: not listed separately
Test: Antiproliferative activity against human OVCAR4 cells assessed as cell growth at 10^-8 M after 48 hrs by sulforhodamine B assay
Type: functional
Settings: OVCAR-4, 48 h, read-out: Activity

Question: With `CNC(=O)c1cc(Oc2ccc3nc(NC(=O)Nc4cc(C(F)(F)F)cc(C(F)(F)F)c4)sc3c2)ccn1` as the molecule, how does the growth at 0.01 µM read?
Answer: 88%

System: not listed separately
Test: Antiproliferative activity against human HOP92 cells assessed as cell growth at 10^-7 M after 48 hrs by sulforhodamine B assay
Type: functional
Settings: HOP-92, 48 h, read-out: Activity

Question: Which growth at 0.1 µM does the source give for `CNC(=O)c1cc(Oc2ccc3nc(NC(=O)Nc4cc(C(F)(F)F)cc(C(F)(F)F)c4)sc3c2)ccn1` here?
Answer: 98%

System: not listed separately
Test: Antiproliferative activity against human OVCAR8 cells assessed as cell growth at 10^-6 M after 48 hrs by sulforhodamine B assay
Type: functional
Settings: OVCAR-8, 48 h, read-out: Activity

Question: With `CNC(=O)c1cc(Oc2ccc3nc(NC(=O)Nc4cc(C(F)(F)F)cc(C(F)(F)F)c4)sc3c2)ccn1` as the molecule, how does the growth at 1 µM read?
Answer: 70%

System: Malme-3M
Test: Antiproliferative activity against human MALME-3M cells assessed as growth inhibition after 48 hrs by sulforhodamine B assay
Type: functional
Settings: not given

Question: Which results are given for `CNC(=O)c1cc(Oc2ccc3nc(NC(=O)Nc4cc(C(F)(F)F)cc(C(F)(F)F)c4)sc3c2)ccn1`?
Answer: GI50: 0.908 µM; TGI: 2.49 µM

Same assay, conditions: read-out: LC50 (the source's name)

Question: With `CNC(=O)c1cc(Oc2ccc3nc(NC(=O)Nc4cc(C(F)(F)F)cc(C(F)(F)F)c4)sc3c2)ccn1` as the molecule, how does the CC50 read?
Answer: 6.41 µM

System: SK-MEL-2
Test: Antiproliferative activity against human SK-MEL-2 cells assessed as cell growth at 10^-4 M after 48 hrs by sulforhodamine B assay
Type: functional
Settings: SK-MEL-2, 48 h, read-out: Activity

Question: For `CNC(=O)c1cc(Oc2ccc3nc(NC(=O)Nc4cc(C(F)(F)F)cc(C(F)(F)F)c4)sc3c2)ccn1`, which growth at 100 µM is on record?
Answer: -75%

System: not listed separately
Test: Antiproliferative activity against human RXF393 cells assessed as cell growth at 10^-6 M after 48 hrs by sulforhodamine B assay
Type: functional
Settings: RXF 393, 48 h, read-out: Activity

Question: Which growth at 1 µM does the source give for `CNC(=O)c1cc(Oc2ccc3nc(NC(=O)Nc4cc(C(F)(F)F)cc(C(F)(F)F)c4)sc3c2)ccn1` here?
Answer: 63%

System: not listed separately
Test: Antiproliferative activity against human UACC257 cells assessed as growth inhibition after 48 hrs by sulforhodamine B assay
Type: functional
Settings: UACC-257, 48 h

Question: Which GI50 does the source give for `CNC(=O)c1cc(Oc2ccc3nc(NC(=O)Nc4cc(C(F)(F)F)cc(C(F)(F)F)c4)sc3c2)ccn1` here?
Answer: 1.15 µM

Question: And the TGI?
Answer: 2.62 µM

Same assay, conditions: UACC-257, 48 h, read-out: LC50 (the source's name)

Question: Which CC50 does the source give for `CNC(=O)c1cc(Oc2ccc3nc(NC(=O)Nc4cc(C(F)(F)F)cc(C(F)(F)F)c4)sc3c2)ccn1` here?
Answer: 5.95 µM

System: EKVX
Test: Antiproliferative activity against human EKVX cells assessed as cell growth at 10^-4 M after 48 hrs by sulforhodamine B assay
Type: functional
Settings: read-out: Activity

Question: Which growth at 100 µM does the source give for `CNC(=O)c1cc(Oc2ccc3nc(NC(=O)Nc4cc(C(F)(F)F)cc(C(F)(F)F)c4)sc3c2)ccn1` here?
Answer: -56%

System: not listed separately
Test: Antiproliferative activity against human SF295 cells assessed as cell growth at 10^-6 M after 48 hrs by sulforhodamine B assay
Type: functional
Settings: SF-295, 48 h, read-out: Activity

Question: With `CNC(=O)c1cc(Oc2ccc3nc(NC(=O)Nc4cc(C(F)(F)F)cc(C(F)(F)F)c4)sc3c2)ccn1` as the molecule, how does the growth at 1 µM read?
Answer: 55%

System: not listed separately
Test: Antiproliferative activity against human PC3 cells assessed as cell growth at 10^-7 M after 48 hrs by sulforhodamine B assay
Type: functional
Settings: PC-3, 48 h, read-out: Activity

Question: For `CNC(=O)c1cc(Oc2ccc3nc(NC(=O)Nc4cc(C(F)(F)F)cc(C(F)(F)F)c4)sc3c2)ccn1`, which growth at 0.1 µM is on record?
Answer: 99%

System: not listed separately
Test: Antiproliferative activity against human HCC2998 cells assessed as cell growth at 10^-7 M after 48 hrs by sulforhodamine B assay
Type: functional
Settings: HCC 2998, 48 h, read-out: Activity

Question: Which growth at 0.1 µM does the source give for `CNC(=O)c1cc(Oc2ccc3nc(NC(=O)Nc4cc(C(F)(F)F)cc(C(F)(F)F)c4)sc3c2)ccn1` here?
Answer: 105%

System: not listed separately
Test: Antiproliferative activity against human UO31 cells assessed as cell growth at 10^-7 M after 48 hrs by sulforhodamine B assay
Type: functional
Settings: UO-31, 48 h, read-out: Activity

Question: For `CNC(=O)c1cc(Oc2ccc3nc(NC(=O)Nc4cc(C(F)(F)F)cc(C(F)(F)F)c4)sc3c2)ccn1`, which growth at 0.1 µM is on record?
Answer: 94%

System: SR
Test: Antiproliferative activity against human SR cells assessed as cell growth at 10^-8 M after 48 hrs by sulforhodamine B assay
Type: functional
Settings: read-out: Activity

Question: Which growth at 0.01 µM does the source give for `CNC(=O)c1cc(Oc2ccc3nc(NC(=O)Nc4cc(C(F)(F)F)cc(C(F)(F)F)c4)sc3c2)ccn1` here?
Answer: 99%

System: not listed separately
Test: Antiproliferative activity against human SF268 cells assessed as cell growth at 10^-8 M after 48 hrs by sulforhodamine B assay
Type: functional
Settings: SF-268, 48 h, read-out: Activity

Question: Which growth at 0.01 µM does the source give for `CNC(=O)c1cc(Oc2ccc3nc(NC(=O)Nc4cc(C(F)(F)F)cc(C(F)(F)F)c4)sc3c2)ccn1` here?
Answer: 97%

System: A549
Test: Antiproliferative activity against human A549/ATCC cells assessed as cell growth at […] after 48 hrs by sulforhodamine B assay
Type: functional
Settings: A549, 48 h, read-out: Activity

Question: With `CNC(=O)c1cc(Oc2ccc3nc(NC(=O)Nc4cc(C(F)(F)F)cc(C(F)(F)F)c4)sc3c2)ccn1` as the molecule, how does the growth at 0.1 µM read?
Answer: 109%

System: not listed separately
Test: Antiproliferative activity against human SW620 cells assessed as cell growth at 10^-4 M after 48 hrs by sulforhodamine B assay
Type: functional
Settings: SW-620, 48 h, read-out: Activity

Question: With `CNC(=O)c1cc(Oc2ccc3nc(NC(=O)Nc4cc(C(F)(F)F)cc(C(F)(F)F)c4)sc3c2)ccn1` as the molecule, how does the growth at 100 µM read?
Answer: -71%

System: NCI-H226
Test: Antiproliferative activity against human NCI-H226 cells assessed as cell growth at 10^-8 M after 48 hrs by sulforhodamine B assay
Type: functional
Settings: NCI-H226, 48 h, read-out: Activity

Question: Which growth at 0.01 µM does the source give for `CNC(=O)c1cc(Oc2ccc3nc(NC(=O)Nc4cc(C(F)(F)F)cc(C(F)(F)F)c4)sc3c2)ccn1` here?
Answer: 84%

System: not listed separately
Test: Antiproliferative activity against human SNB75 cells assessed as cell growth at 10^-6 M after 48 hrs by sulforhodamine B assay
Type: functional
Settings: SNB-75, 48 h, read-out: Activity

Question: Which growth at 1 µM does the source give for `CNC(=O)c1cc(Oc2ccc3nc(NC(=O)Nc4cc(C(F)(F)F)cc(C(F)(F)F)c4)sc3c2)ccn1` here?
Answer: 50%

System: not listed separately
Test: Antiproliferative activity against human Caki1 cells assessed as cell growth at 10^-7 M after 48 hrs by sulforhodamine B assay
Type: functional
Settings: CAKI-1, 48 h, read-out: Activity

Question: With `CNC(=O)c1cc(Oc2ccc3nc(NC(=O)Nc4cc(C(F)(F)F)cc(C(F)(F)F)c4)sc3c2)ccn1` as the molecule, how does the growth at 0.1 µM read?
Answer: 94%

System: SN12C
Test: Antiproliferative activity against human SN12C cells assessed as cell growth at 10^-4 M after 48 hrs by sulforhodamine B assay
Type: functional
Settings: read-out: Activity

Question: Which growth at 100 µM does the source give for `CNC(=O)c1cc(Oc2ccc3nc(NC(=O)Nc4cc(C(F)(F)F)cc(C(F)(F)F)c4)sc3c2)ccn1` here?
Answer: -60%

System: SK-MEL-28
Test: Antiproliferative activity against human SK-MEL-28 cells assessed as cell growth at 10^-6 M after 48 hrs by sulforhodamine B assay
Type: functional
Settings: SK-MEL-28, 48 h, read-out: Activity

Question: With `CNC(=O)c1cc(Oc2ccc3nc(NC(=O)Nc4cc(C(F)(F)F)cc(C(F)(F)F)c4)sc3c2)ccn1` as the molecule, how does the growth at 1 µM read?
Answer: 66%

System: A549
Test: Antiproliferative activity against human A549/ATCC cells assessed as cell growth at 10^-6 M after 48 hrs by sulforhodamine B assay
Type: functional
Settings: A549, 48 h, read-out: Activity

Question: Which growth at 1 µM does the source give for `CNC(=O)c1cc(Oc2ccc3nc(NC(=O)Nc4cc(C(F)(F)F)cc(C(F)(F)F)c4)sc3c2)ccn1` here?
Answer: 68%

System: not listed separately
Test: Antiproliferative activity against human OVCAR4 cells assessed as growth inhibition after 48 hrs by sulforhodamine B assay
Type: functional
Settings: OVCAR-4, 48 h

Question: Which results are given for `CNC(=O)c1cc(Oc2ccc3nc(NC(=O)Nc4cc(C(F)(F)F)cc(C(F)(F)F)c4)sc3c2)ccn1`?
Answer: GI50: 0.958 µM; TGI: 2.73 µM

Same assay, conditions: OVCAR-4, 48 h, read-out: LC50 (the source's name)

Question: For `CNC(=O)c1cc(Oc2ccc3nc(NC(=O)Nc4cc(C(F)(F)F)cc(C(F)(F)F)c4)sc3c2)ccn1`, which CC50 is on record?
Answer: 7.58 µM

Biological target: T1, CYP1A2 (Homo sapiens, UniProt P05177)
T1 sequence (P05177 whole entry): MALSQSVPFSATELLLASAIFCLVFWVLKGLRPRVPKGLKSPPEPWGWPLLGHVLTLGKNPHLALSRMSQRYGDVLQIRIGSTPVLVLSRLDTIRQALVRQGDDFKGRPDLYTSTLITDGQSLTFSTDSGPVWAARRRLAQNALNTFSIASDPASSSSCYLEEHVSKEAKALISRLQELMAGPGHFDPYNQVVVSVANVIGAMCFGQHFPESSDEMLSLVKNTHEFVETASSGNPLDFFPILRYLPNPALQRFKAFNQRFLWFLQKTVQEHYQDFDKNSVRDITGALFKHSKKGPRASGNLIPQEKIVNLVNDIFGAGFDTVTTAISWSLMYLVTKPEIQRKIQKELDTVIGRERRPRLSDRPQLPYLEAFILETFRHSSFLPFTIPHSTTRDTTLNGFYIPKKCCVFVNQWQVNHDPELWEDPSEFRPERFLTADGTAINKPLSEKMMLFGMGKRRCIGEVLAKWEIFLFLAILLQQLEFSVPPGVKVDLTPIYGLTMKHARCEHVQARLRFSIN
Test: Inhibition of recombinant human CYP1A2 assessed as remaining enzyme activity using CYP1A2 blue as substrate at 10 uM after 5 mins in presence of NADP by fluorescence plate reader analysis
Type: ADME
Settings: recombinant human CYP1A2, probe CYP1A2 blue, read-out: Activity

Question: With `CNC(=O)c1cc(Oc2ccc3nc(NC(=O)Nc4cc(C(F)(F)F)cc(C(F)(F)F)c4)sc3c2)ccn1` as the molecule, how does the activity at 5 min, 10 µM read?
Answer: 110%
